Experimental data from EP1153612A1, “ANTICANCER AGENT POTENTIATORS” (Tsuruo, Takashi, priority 1999, dated 2000).
Where a SMILES comes first, the peptide text is derived from it. [ ]: non-standard residue; d: D form. The star is where a group is joined. Nva = CCC[C@H](N)C(=O)O; Cbz = O=C(OCc1ccccc1)*; OtBu = CC(C)(C)O*

Columns and labels:
[1] = tested on: human colon adenocarcinoma cell HT-29; assay: Sensitivity of cells to anticancer drug by colony formation method (M phase-synchronized cells, with or without proteasome inhibiting agent); type: cell-based; settings: for effect of each inhibiting agent on etoposide sensitivity: etoposide 10 µg/ml, MG132, MG115 2.5 µM, E64, ZLLal 25 µM, FIG. 2; for change of cell-killing effect of camptothecin: PSI, MG132 2.5 µM 13 hours, camptothecin 4 hours, FIGS. 15 and 16
Experimental: In the glucose starvation environment found in the solid cancer, the effect of combined use of the proteasome inhibitor in a human colon adenocarcinoma cell HT-29 with the anticancer drug targeting topoisomerase II was tested.
Concerning culture media, for a culture condition in a normal state, RPMI 1640 medium (Nissui Pharmaceutical Co.-made) to which a 5% FBS (fetal bovine serum) was added and for the culture condition in the glucose starvation state symbolically found in the solid cancer, RPMI 1640 medium (Lifetech Oriental-made), lacking glucose, in which the 5% FBS was added were used, respectively. Culture was carried out using a CO2 incubator (Tabai Espec-made) under conditions of 5% CO2/95% air and humidity 100%.
In order to test sensitivity to the anticancer drug, the cell cycle synchronization culture methodwas employed. Nocodazol (Sigma made) was used to synchronize the cell cycle, cells in a logarithmic proliferation phase were treated with 40 ng/ml Nocodazol for 9 hours, and cells accumulated in cell division phase (Mpahse) were collected by gentle pipetting. M phase-synchronized cells collected through these steps were washed with PBS (phosphate buffered saline) followed by inoculation of 1×10^5 cells per well of 12 well-culture plate.
M phase-synchronized cells were cultured under the normal condition and the glucose starvation condition to conduct treatments with the proteasome inhibiting agent and the anticancer drug as follows. For cells under the glucose starvation condition, the culture medium, to which the proteasome inhibiting agent and the protease inhibiting agent not inhibiting proteasome were added as the control group, and the culture medium, to which no inhibiting agent has been added, was used. For cells under the normal condition, the culture medium, to which each inhibiting agent was not added, was used. After inoculation of cells, culture was carried out for 13 hours in each culture medium. […]
Sensitivity of cells to the anticancer drug was measured using the colony formation method. As described above, cells treated with the proteasome inhibiting agent and the anticancer drug were washed with PBS followed by soaking in trypsin (Lifetech Oriental made) solution and removed from a culture dish to suspend in an ordinary culture medium. These cells were inoculated again in 500 to 5000 cells for a 10 cm culture dish and cultured for 10 to 12 days to form a colony. The colony formed was fixed by 10% formaldehyde solution and stainedwith 0.01% crystal violet (Wako Pure Chemicals made) solution. Number of colony was counted and a Cell survival rate was calculated assuming that the number of colonies untreated with the anticancer drug is 1.
For reference, the proteasome inhibiting agent and the protease inhibiting agent not inhibiting proteasome used as described above were as follows. • (1) Proteasome inhibiting agent • . […] MG115 (carbobenzoxy-L-Leucyl-L-Leucyl-L-Norvalinal): final concentration 2.5 µM (Peptide Institute Inc. made) • . MG132 (carbobenzoxy-L-Leucyl-L-Leucyl-Leucinal) : final concentration 2.5 µM (Peptide Institute Inc. made) • . Lactacystin, final concentration 10 µM (Kindly supplied from The Kitasato Institute made) • (2) Protease inhibiting agent not inhibiting proteasome • . E64, final concentration 25 µM (Peptide Institute Inc. made) • . ZLLal (carbobenzoxy-L-Leucyl-L-Leucinal): final concentration 25 µM (Peptide Institute Inc. made)
The cell culture condition for both M phase-synchronized culture method and culture under the glucose starvation condition was as described in Example 1. M phase-synchronized cells were cultured in the culture medium, to which lactacystin of the final concentration 10 µM was added, or the culture medium, to which this was not added, as the proteasome inhibiting agent under the ordinary condition and the glucose starvation condition, respectively, for 13 hours. […]

topoisomerase IIα = assay: Amount of expression of topoisomerase IIα in whole cell extract by western blotting; type: cell-based, human
Description: Topoisomerase II inhibiting anticancer drug stabilizes a complex (cleavable complex) consisting of the DNA and topoisomerase IIα occurring in a catalytic reaction process of topoisomerase IIα to cause DNA damage. Therefore, cell-killing effect of the topoisomerase II-inhibiting anticancer drug depends on the amount of intracellular expression of topoisomerase IIα essential for formation of the cleavable complex. Then, the amount of expression of topoisomerase IIα in the cultured cancer cell under the glucose starvation and hypoxia environment that are found in the solid cancer and the effect of the proteasome inhibiting agent to the amount of expression were examined.
The culture condition of cells is same as that described in Example 1 including the M phase synchronous culture method and culture under the glucose starvation condition. Culture under hypoxia condition, that is found in the solid cancer, similar to glucose starvation was carried out using the culture medium (that prepared by adding 5% FBS to RPMI1640 culture medium) under the ordinary condition in a Gaspack 100 anaerobic system (Becton Dickinson made). Culture under the glucose starvation condition and hypoxia condition was carried out for 14 hours .
With the purpose to prepare a whole cell extract solution, cells culture under the above described condition were washed with an ice-cooled PBS twice and then, cells were removed from the culture dish by using a cell scraper (Sumitomo Bakelite made) for collection. Cells collected were precipitated by centrifugation and then, dissolved in an SDS sample buffer to collect as the extract solution from all cells. For reference, the composition of the SDS sample buffer was 10% v/v, glycerol, 5% 2-mercaptoethanol, 2% SDS (sodium lauryl sulfate), and 62.5 mM tris-hydrochloric acid (pH 6.8).
The amount of topoisomerase IIα in the extract solution from all cells was measured by the western blotting method. The extract solution from all cells containing a total protein quantity of 30 µg was put on an SDS polyacrylamide gel (4-20 Multigel: Daiichi Pure Chemicals K.K. made) and subjected to electrophoresis in an electrophoresis buffer (25 mM tris, 192 mM glycine, and 0.1% SDS) in a 40 mA constant current for 1 hour. Subsequently, blotting was carried out in 4°C blotting buffer (25 mM tris, 192 mM glycine, and 20% methanol) in a 50 V constant voltage for 12 hours to transfer a protein separated in the SDS polyacrylamide gel to a nitrocellulose membrane. This nitrocellulose membrane was soaked in a blocking buffer (0.1% Tween 20, 4% skim milk-added PBS) for 1 hour to carry out blocking. The nitrocellulose membrane blocked was soaked in a solution, that was prepared by adding anti-topoisomerase IIα antibody (Cambridge Research Biochemicals Corp. made) of the final concentration 1 µg/ml as the primary antibody to the blocking buffer solution, for 1 hour. The nitrocellulose membrane was washed with the blocking buffer three times (5 minutes once), and then, soaked in the solution, in which a 1/1000 volume of an antimouse antibody (Amersham Pharmacia Biotech made) labeled with horse radish peroxidase as a secondary antibody had been added to the blocking buffer, for 1 hour. The nitrocellulose membrane was washed with the blocking buffer three times (5 minutes once), and then, washed with the PBS, to which 0.1% Tween 20 was added, three times (5 minutes once). The nitrocellulose membrane after completion of antibody reaction and washing was treated with the ECL reagent (Amersham Pharmacia Biotech made) after a handling manual and a topoisomerase IIα-specific signal was detected on an X-OMAT™AR film (Kodakmade). For reference, steps after blotting was carried out in a room temperature. […]
The cell culture condition for both M phase-synchronized culture method and culture under the glucose starvation condition was as described in Example 1. […]

[2] = glucose starvation condition 14 hours, PSI, MG115, MG132 5 µM, lactacystin 10 µM, E64, ZLLal 50 µM, FIG. 5(a)-(c)
[3] = glucose starvation condition, final concentration of 2.5 µM, not presented as data

Row | SMILES | effect of each inhibiting agent on etoposide sensitivity ([1]; glucose starvation condition) | expressed amount of topoisomerase IIα (topoisomerase IIα; [2]) | expressed amount of topoisomerase IIα (topoisomerase IIα; [3]) | also measured
1 | CC(C)C[C@H](NC(=O)[C@H]1O[C@@H]1C(=O)O)C(=O)NCCCCNC(=N)N [E64] | seldom change sensitivity to etoposide | the expressed amount of topoisomerase IIα very dropped |  | 
2 | CCC[C@@H](C=O)NC(=O)[C@H](CC(C)C)NC(=O)[C@H](CC(C)C)NC(=O)OCc1ccccc1 [MG115, carbobenzoxy-L-Leucyl-L-Leucyl-L-Norvalinal] (Cbz-Leu-Leu-[Nva]-aldehyde) | enhance sensitivity of cells to etoposide | the expressed amount of topoisomerase IIα does not drop | inhibited similarly decrease in expression of topoisomerase IIα | 
3 | CC(C)C[C@@H](C=O)NC(=O)[C@H](CC(C)C)NC(=O)[C@H](CC(C)C)NC(=O)OCc1ccccc1 [MG132, carbobenzoxy-L-Leucyl-L-Leucyl-Leucinal] (Cbz-Leu-Leu-Leu-aldehyde) | enhance sensitivity of cells to etoposide | the expressed amount of topoisomerase IIα does not drop | inhibited similarly decrease in expression of topoisomerase IIα | change of cell-killing effect of camptothecin ([1]; glucose starvation condition): also enhance the effect of camptothecin
4 | CC[C@H](C)[C@H](NC(=O)OCc1ccccc1)C(=O)N[C@@H](CCC(=O)OC(C)(C)C)C(=O)N[C@@H](C)C(=O)N[C@H](C=O)CC(C)C [PSI, carbobenzoxy-L-Isoleucyl-γ-t-Butyl-L-Glutamyl-L-Alany 1-L-Leucinal] (Cbz-IE(OtBu)AL-aldehyde) |  | the expressed amount of topoisomerase IIα does not drop | inhibited similarly decrease in expression of topoisomerase IIα | sensitivity to etoposide of cancer cells, effect of inhibiting agent ([1]; glucose starvation condition, PSI 2.5 µM, 13 hours, then etoposide 1 hour, FIG. 1): cells show sensitivity to etoposide even in the glucose starvation condition; change of cell-killing effect of camptothecin ([1]; glucose starvation condition): also enhance the effect of camptothecin
5 | CC(C)C[C@@H](C=O)NC(=O)[C@H](CC(C)C)NC(=O)OCc1ccccc1 [ZLLal, carbobenzoxy-L-Leucyl-L-Leucinal] | seldom change sensitivity to etoposide | the expressed amount of topoisomerase IIα very dropped |  | 
6 | N.N.[Cl][Pt][Cl] [cisplatin] |  |  |  | sensitivity of cancer cells to cisplatin ([1]; under the stress environment (glucose starvation), cisplatin 4 hours, FIG. 18): high sensitivity
7 | CC(=O)NCCSC(=O)[C@]1([C@@H](O)C(C)C)NC(=O)[C@H](C)[C@@H]1O [decarboxy lactacystin] |  |  |  | change of cell-killing effect of etoposide ([1]; decarboxy lactacystin 5 µM 13 hours, etoposide 4 hours, ordinary and glucose starvation condition, FIG. 19 top): enhances the cell-killing effect of etoposide; change of cell-killing effect of SN38 ([1]; ordinary condition, decarboxy lactacystin 5 µM 13 hours, SN38 4 hours, FIG. 20): enhances the cell-killing effect of SN38; amount of expression of topoisomerase IIα (topoisomerase IIα; glucose starvation condition 13 hours, decarboxy lactacystin 0.5, 1, 2.5, and 5 µM, FIG. 19 bottom): inhibits lowering of expression of topoisomerase IIα by glucose starvation
